According to PubChem BioAssay (NCI):
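Abbreviation: GI50, concentration required for 50% inhibition of growth. Definition used: TGI = concentration required for complete inhibition of growth.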

Key:
Assay in all cases: NCI anticancer screen, dose series, 384-well format
MDA-MB-435 melanoma = tested on: MDA-MB-435 melanoma
DU-145 prostate = tested on: DU-145 prostate
MALME-3M melanoma = tested on: MALME-3M melanoma
MOLT-4 leukemia = tested on: MOLT-4 leukemia
NCI-H322M lung = tested on: NCI-H322M lung
SK-MEL-28 melanoma = tested on: SK-MEL-28 melanoma
IGROV1 ovarian = tested on: IGROV1 ovarian
HL-60(TB) leukemia = tested on: HL-60(TB) leukemia
SF-295 CNS = tested on: SF-295 CNS
U251 glioblastoma = tested on: U251 glioblastoma
HT29 colon = tested on: HT29 colon
NCI-H23 lung = tested on: NCI-H23 lung
CAKI-1 renal = tested on: CAKI-1 renal

## Cc1cc(Nc2ncc(Cl)c(Nc3ccccc3S(=O)(=O)C(C)C)n2)c(OC(C)C)cc1C1CCNCC1
MDA-MB-435 melanoma
  GI50: 1270 nM
  TGI: 2550 nM
DU-145 prostate
  GI50: 1560 nM
  TGI: 2920 nM
MALME-3M melanoma
  GI50: 551 nM
  TGI: 1720 nM
MOLT-4 leukemia
  GI50: 711 nM
  TGI: 1980 nM
NCI-H322M lung
  GI50: 1320 nM
  TGI: 2600 nM
SK-MEL-28 melanoma
  GI50: 1540 nM
  TGI: 2880 nM
IGROV1 ovarian
  GI50: 1270 nM
  TGI: 2580 nM
HL-60(TB) leukemia
  GI50: 218 nM
  TGI: 490 nM
SF-295 CNS
  GI50: 1700 nM
  TGI: 3090 nM
U251 glioblastoma
  GI50: 1780 nM
  TGI: 3190 nM
HT29 colon
  GI50: 408 nM
  TGI: 1460 nM
NCI-H23 lung
  GI50: 1270 nM
  TGI: 2550 nM
CAKI-1 renal
  GI50: 1750 nM
  TGI: 3140 nM
